Assay results as given in patent publication US20060263453A1, “Methods and compositions for modulating glutamate dehydrogenase” (priority 2004, published 2006).
Read-outs that look alike come from different tables or passages of the source.

Assays:
Bovine GDH (bGDH) = molecular target: T1, Bovine GDH (bGDH) (Bos taurus, UniProt P00366); assay: reductive amination reaction catalyzed by bovine GDH (NADH absorbance at 340 nm); format: biochemical
T1 construct: purchased Sigma Aldrich Chemical Company (St. Louis, Mo.)
T1 sequence (P00366 58-558): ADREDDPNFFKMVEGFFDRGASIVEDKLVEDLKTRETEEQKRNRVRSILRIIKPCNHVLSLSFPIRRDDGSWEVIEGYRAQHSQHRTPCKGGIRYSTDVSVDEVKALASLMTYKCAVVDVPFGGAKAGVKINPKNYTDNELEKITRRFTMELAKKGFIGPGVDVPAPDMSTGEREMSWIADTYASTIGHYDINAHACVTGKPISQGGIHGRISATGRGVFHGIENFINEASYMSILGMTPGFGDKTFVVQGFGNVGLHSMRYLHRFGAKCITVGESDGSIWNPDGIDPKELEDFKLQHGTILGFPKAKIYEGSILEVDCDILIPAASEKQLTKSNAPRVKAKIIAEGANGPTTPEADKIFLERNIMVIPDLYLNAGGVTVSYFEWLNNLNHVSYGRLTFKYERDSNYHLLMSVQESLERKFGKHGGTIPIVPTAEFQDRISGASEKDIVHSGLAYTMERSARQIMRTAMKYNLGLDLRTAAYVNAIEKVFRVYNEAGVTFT
Procedure: In this Example, the effects of epigallocatechin gallate (EGCG), epigallocatechin (EGC), epicatechin gallate (ECG), and epicatechin (EC) from Camellia sinensis on GDH activity were tested. Bovine GDH (bGDH) was used in this Example, which was obtained as an aqueous (NH4)2SO4 suspension from Sigma Aldrich Chemical Company (St. Louis, Mo.).
(§1) First, aliquots of GDH were extensively dialyzed against 0.1M sodium phosphate buffer, pH 7.0, which contained 1 mM ethylenediaminetetraacetic acid (EDTA). The enzyme concentrations were adjusted to 1 mg/ml and the amount of enzyme added to the reaction mixture, for kinetic analysis, was adjusted to yield optimal steady state velocity measurements. All solutions were made immediately prior to use. Enzyme assays were performed by monitoring reduced coenzyme absorbance at 340 nm using a Shimadzu UV-1601 spectrophotometer. The reductive amination reactions were performed in 3 mL volumes at pH 7.0 in the presence of 0.1 mM nicotinamide adenine dinucleotide (NADH), 50 mM NH4Cl, and 5 mM 2-oxoglutarate. The rate of NADH oxidation was calculated using an extinction coefficient of 6.22 mM^−1 cm^−1.

GDH = molecular target: T2, GDH (Bos taurus, UniProt P00366); assay: abrogation of EGCG inhibition of GDH by leucine, BCH and ADP; format: biochemical, bovine
T2 construct: purchased Sigma Aldrich Chemical Company (St. Louis, Mo.)
T2 sequence (P00366 58-558): as above
Procedure: as §1
The ability of the activators BCH, leucine, and ADP to reverse EGCG regulation on GDH was next examined. More particularly, kinetic analysis of GDH activity was carried out as described in Example 1, wherein each reaction contained either (a) 0 μM EGCG plus leucine; (b) 1 μM EGCG plus leucine; (c) 0 μM EGCG plus BCH; (d) 1 μM EGCG plus BCH; (e) 0 μM EGCG plus ADP; or (f) 1 μM EGCG plus ADP.

[1] = tested on: HI/HA mutant forms of GDH (R265K, R269C, E296A, S448P, H454Y); assay: kinetic analysis of HI/HA mutant forms of GDH; format: biochemical, human; conditions: FIG. 4
Procedure: as §1
To this end, EGCG was tested against five different HI/HA mutant forms of GDH, namely, R265K, R269C, E296A, S448P, and H454Y. In addition, EGCG was tested against human wild type GDH (“WT”), GDH from Tetrahymena thermophilia (“tGDH”) that, like the HI/HA mutant GDH enzymes, is not regulated by GTP, and a human GDH that was missing a certain 48 residue ‘antenna-like’ feature protruding from the top of each of its six subunits that is necessary for ADP, GTP, and Palmitoyl CoA regulation. […]

islets = assay: [U-14C]-glutamine oxidation in islets; format: cell-based, rat
Procedure: In a first experiment, a batch of 100 islets were incubated with glucose-free Krebs-Ringer bicarbonate buffer, as described herein, containing 20 μM EGCG or 20 μM EGC and 2 mM glutamine for 60 minutes. The islets were then incubated in the presence of varying concentrations of BCH (shown in FIG. 7A) for 60 minutes, and for an additional 60 minutes in the presence of 2 mCi [U-^14C]-glutamine (NEN-Life Science Products, UK). Next, [U-^14C]-glutamine oxidation in the incubated islets was measured. A trap filter was placed in each tightly sealed glass tube of the perifusion apparatus to collect the ^14CO2 produced by the islets, and the amount of radioactivity was determined by liquid scintillation counting. The results are summarized in FIG. 7A, and are presented as means±S.E. from 4 separate experiments. […] The islets were then incubated in the presence of 10 mM BCH (or no BCH—to measure “baseline” glutamine oxidation levels) for 60 minutes. The islets were then incubated for an additional 60 minutes in the presence of 2 mCi [U-^14C]-glutamine (NEN-Life Science Products, UK). Next, [U-^14C]-glutamine oxidation in the incubated islets was measured, as described above.

rat islets = assay: insulin secretion and oxygen consumption during glucose stimulation; format: cell-based
Procedure: Next, insulin secretion and oxygen consumption were measured, as described herein, during glucose stimulation to confirm the above results. Isolated rat islets were isolated and cultured, as described above, with 10 mM glucose for 3 days and subsequently perifused in the oxygen consumption measurement apparatus described above. […] In general, FCCP is known to stimulate Mg^2+-ATPase activity, inhibit β-amyloid production, and mimic the effect of selective glutamate agonist N-methyl-D-aspartate (NMDA) on mitochondrial superoxide production. The results shown in FIG. 9 are presented as means±S.E. for 1000 islets from 3 separate experiments. Due to the high density of data, S.E. is only shown in every 20 samples.

## O=C(O[C@@H]1Cc2c(O)cc(O)cc2O[C@@H]1c1cc(O)c(O)c(O)c1)c1cc(O)c(O)c(O)c1 [EGCG, (2R,3R)-2-(3,4,5-Trihydroxyphenyl)-3,4-dihydro-1 (2H)-benzopyran-3,5,7-triol 3-(3,4,5-trihydroxybenzoate)]
Bovine GDH (bGDH); FIG. 1A
  potent inhibitor of GDH activity: potent inhibitors
Bovine GDH (bGDH); dialysis of an EGCG/GDH mixture, data not shown
  reversibility of inhibition: reversible
GDH; 1 μM EGCG plus leucine, BCH or ADP, read-out: EGCG inhibition at the highest concentration of activators
  inhibition at 1 µM: ~30%
GDH; 1 μM EGCG, without activator, read-out: inhibition of the reaction
  inhibition at 1 µM: > 80%
[1]
  inhibition of the activity of HI/HA GDH enzymes: substantially the same efficacy as with wild type human GDH
islets; 20 μM, 2 mM glutamine, FIG. 7A
  block of BCH stimulation of glutaminolysis (glutamine oxidation): completely blocked
islets; 3 mM glutamine, no BCH, FIG. 7D
  effect on basal levels of glutamine oxidation: does not have an effect
islets; 3 mM glutamine, FIG. 7B, 7C
  effect on 10 mM BCH-stimulated glutamine oxidation: inhibits glutamine oxidation in a dose-dependent manner
islets; 10 mM BCH, 3 mM glutamine, FIG. 7B
  concentration of maximal effects on glutamine oxidation: approximately 20 μM
Rat islets; FIG. 9A
  effect on GSIS: does not affect
Rat islets; FIG. 9B
  effect on respiration during glucose stimulation: does not affect
